Assay results reported in patent US6376488B1, “Benzoxazine α-1 adrenergic compounds” (Abbott Laboratories, priority 2000, dated 2002).
Counter-ions that a name gives are not always drawn.

How the values were obtained:
[1] = biological target: T1, α1a (bovine) adrenoreceptor (Bos taurus, UniProt P18130); assay: [3H]-prazosin radioligand binding, cloned α1a (bovine) adrenoreceptor in LTK cells; details: cloned receptor in LTK cell membranes, [3H]prazosin 0.2 nM
T1 sequence (P18130 1-466): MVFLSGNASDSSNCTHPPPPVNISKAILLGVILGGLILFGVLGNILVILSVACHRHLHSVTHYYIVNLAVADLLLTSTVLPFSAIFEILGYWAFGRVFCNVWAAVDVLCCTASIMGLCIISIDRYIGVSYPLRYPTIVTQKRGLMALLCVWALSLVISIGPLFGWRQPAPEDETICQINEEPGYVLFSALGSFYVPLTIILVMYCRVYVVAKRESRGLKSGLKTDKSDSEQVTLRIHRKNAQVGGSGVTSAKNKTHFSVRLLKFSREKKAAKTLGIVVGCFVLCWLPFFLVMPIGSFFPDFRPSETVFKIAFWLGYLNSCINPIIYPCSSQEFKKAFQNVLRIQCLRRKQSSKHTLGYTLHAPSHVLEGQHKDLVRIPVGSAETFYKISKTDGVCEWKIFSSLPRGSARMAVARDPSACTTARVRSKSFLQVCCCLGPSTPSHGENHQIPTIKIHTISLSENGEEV
Procedure: Representative compounds of the invention were evaluated for α adrenoreceptor binding affinity in vitro using [^3H]-prazosin as the radioligand and following four cloned α1, adrenoreceptors expressed in LTK cells: α1a (rat), α1a (bovine), α1b : (hampster), and α1d (rat).
The cDNA clones encoding the α1, adrenoreceptors were obtained from TULCO (Triangle Universities Licensing Consortium, Research Triangle Park, N.C.) and inserted into the eukaryotic expression vector SnaB30. In this vector, expression of the adrenoreceptor gene is under the transcriptional control of an SV40 early promoter. Positive drug selection is provided by a neomycin-resistance gene. Mouse fibroblast cells (LTK) were transfected with the α1 expression plasmids and grown in Dulbecco's modified Eagle's medium (DMEM) containing 10% fetal calf serum and 30 μM G418. Stable G418-resistant parental lines were generated with successful expression of adrenoreceptor protein monitored using radioligand binding techniques. Stable single cell clones derived from the parental lines were screened in adrenoreceptor binding assays to identify clones having high adrenoreceptor density. Roller bottle cultures of the cloned lines were used to provide cell membranes for subsequent adrenoreceptor binding characterization studies. A cell line containing the SnaB30 vector expressing the human erythropoietin gene served as a negative control.
For adrenoreceptor binding assays, large scale membrane preparations were utilized in which 6 million cells were seeded into small (450 cm^2) Coming tissue culture roller bottles. DMEM (200 mL) containing 10% fetal calf serum and 300 μM G418 were added to each roller bottle. A 95% air/5% CO2 gas mixture (sterile) was injected into each roller bottle prior to sealing, and the bottles were then incubated at 37° C. on a roller rack for 5 days. Cells were refed with fresh medium after 3 days in culture.
On the fifth day of culture, growth medium was removed from cells grown in roller bottles, and the cells were washed twice with PBS (Sigma, 120 mM NaCl, 2.7 mM KCl, 10 mM Na2HPO4-NaH2PO4, pH=7.4). Cells were detached from the roller bottles by incubating for 15 minutes at 37° C. in a Tris-EDTA solution (10 mM Tris, 100 mM NaCl, 1 mM EDTA, pH=7.4). The cell suspension from each roller bottle was decanted into tared centrifuge tubes and kept on ice. An aliquot of each cell suspension was generally taken for cell counting. Cells were centrifuged at 3000×G for 5 minutes at 2-4° C., washed with PBS and recentrifuged. The supernatant was decanted, and the pellet was weighed to determine the wet weight of cells. Cells were washed a final time in 40 vol 5 mM Tris-HCl, 5 mM EDTA, pH=7.7 and centrifuged at 40,000×G for 10 minutes (“vol” indicates volume/weight, e.g., a “vol” of 40 would indicate that the one gram of cells were washed with 40 mls of buffer). Cells were homogenized in of 50 mM Tris-HCl, 5 mM EDTA (pH=7.4) (10 mL) and diluted to 40 mL/tube. Homogenates were centrifuged at 40,000×G for 10 minutes. The supernatant was decanted and the pellets rehomogenized in 50 mM Tris-HCl (pH=7.4) and centrifuged as before. The supernatant was decanted and the homogenate was resuspended in 6.25 volumes (per gram wet weight) of 50 mM Tris-HCl and aliquots of the pooled homogenates frozen in liquid N2 and,stored at −70° C. until the time of assay.
Receptor binding assays for α1 adrenoreceptors were performed essentially as described by Greengrass and Bremner (Eur. J. Pharmacol. 55: 323-326 (1979)). […] Following equilibration, bound radioligand was separated from free on GF/B filters (presoaked in 0.5% polyethyleneimine) using ither a Brandel or Packard cell harvester. Radioactivity was determined by standard liquid scintillation techniques. Data were analyzed as previously described (Hancock, A. A., Kyncl, J. J., Martin, Y. C. and DeBemardis, J. F., J. Receptor Res. 8: 23-46 (1988)). The in Table 1.

Compound | Ki [1] [nM] | melting point [°C]
Cl.Cl.O=c1[nH]c2c(sc3ncccc32)c(=O)n1CCCCN1CCN2c3ccccc3OCC2C1 (single isomer, unassigned; (+)) [Example 5, (+) 3-[4-(1,2,4a,5-tetrahydropyrazino[2,1-c][1,4]benzoxazin-3(4H)-yl)butyl]pyrido[3′, 2′:4,5]thieno[3,2-d]pyrimidine-2,4(1H,3H)-dione dihydrochloride] | 2.72 | 288 to 291
COc1cccc2c1N1CCN(CCn3c(=O)[nH]c4c(sc5ncc(Cl)nc54)c3=O)CC1CO2.Cl.Cl (single isomer, unassigned; (+)) [Example 8, (+) 3-[2-(10-methoxy-1,2,4a,5-tetrahydropyrazino[2,1-c][1,4]benzoxazin-3(4H)-yl)ethyl]-8-chloropyrazino[2′,3′:4,5]thieno[3,2-d]pyrimidine-2,4(1H,3H)-dione dihydrochloride] | 0.463 | 280 to 283
COc1cccc2c1N1CCN(CCCCn3c(=O)[nH]c4c(sc5cccnc54)c3=O)CC1CO2 (single isomer, unassigned; (+)) [Example 14, (+) 3-[4-(10-methoxy-1,2,4a,5-tetrahydropyrazino[2,1-c][1,4]benzoxazin-3(4H)-yl)butyl]pyido [2′,3′:4,5]thieno[3,2-d]pyrimidine-2,4(1H,3H)-dione trihydrochloride] | 0.243 | 
COc1cccc2c1N1CCN(CCCCn3c(=O)[nH]c4c(sc5ncccc54)c3=O)CC1CO2.Cl.Cl.Cl (single isomer, unassigned; (+)) [Example 15, (+) 3-[4-(10-methoxy-1,2,4a,5-tetrahydropyrazino[2,1-c][1,4]benzoxazin-3(4H)-yl)butyl]pyrido[3′,2′:4,5]thieno[3,2-d]pyrimidine-2,4(1H,3H)-dione trihydrochloride] | 0.289 | 225 to 230
COc1cccc2c1N1CCN(CCCn3c(=O)[nH]c4c(sc5cccnc54)c3=O)CC1CO2.Cl.Cl.Cl (single isomer, unassigned; (+)) [Example 17, (+) 3-[3-(10-methoxy-1,2,4a,5-tetrahydropyrazino[2,1-c][1,4]benzoxazin-3(4H)-yl)propyl]pyrido[2′,3′:4,5]thieno[3,2-d]pyrimidine-2,4(1H,3H)-dione trihydrochloride] | 2.5 | 219 to 224
O=c1[nH]c2c(sc3cccnc32)c(=O)n1CCCCN1CCN2c3ccccc3OCC2C1 (single isomer, unassigned; (-)) [Example 4, (−) 3-[4-(1.2,4a,5-tetrahydropyrazino[2,1-c][1,4benzoxazin-3(4H)-yl)butyl]pyrido[2′,3′:4,5]thieno[3,2-d]pyrimidine-2,4(1H,3H)-dione dihydrochloride] | 3.6 | 
COc1cccc2c1N1CCN(CCn3c(=O)[nH]c4c(sc5cccnc54)c3=O)CC1CO2.Cl.Cl (single isomer, unassigned; (-)) [Example 7, (−) 3-[2-(10methoxy-1,2,4a,5-tetrahydropyrazino[2,1-c][1,4]benzoxazin-3(4H)-yl)ethyl]pyrido[2′,3′:4,5]thieno[3,2-d]pyrimidine-2,4(1H,3H)-dione dihydrochloride] | 0.251 | 297 to 298
(−) 3-[3-(10-methoxy-1,2,4a,5-tetrahydropyrazino[2,1-c][1,4]benzoxazin-3(4H)-yl)butyl]pyrido[2′,3′:4,5]thieno[3,2-d]pyrimidine-2,4(1H,3H)-dione trihydrochloride [Example 10] | 0.243 | 

More lines, in order of falling Ki [1], values ahead:

Ki [1] [nM] | melting point [°C] | Compound
13.8 |  | O=c1[nH]c2c(sc3cccnc32)c(=O)n1CCCN1CCN2c3ccccc3OCC2C1 (single isomer, unassigned; (-)) [Example 2, (−) 3-[3-(1,2,4a,5-tetrahydropyrazino[2,1-c][1,4]benzoxazin-3(4H)-yl)propyl]pyrido[2′,3′:4,5]thieno[3,2-d]pyrimidine-2,4(1H,3H)-dione dihydrochloride]
5.51 | 290 to 293 | Cl.Cl.O=c1[nH]c2c(sc3ncccc32)c(=O)n1CCCCN1CCN2c3ccccc3OCC2C1 (single isomer, unassigned; (-)) [Example 6, (−) 3-[4-(1,2,4a,5-tetrahydropyrazino[2,1-c][1,4]benzoxazin-3(4H)-yl)butyl]pyrido[3′, 2′:4,5]thieno[3,2-d]pyrimidine-2,4(1H,3H)-dione dihydrochloride]
2.09 | 278 to 280 | Cl.Cl.O=c1[nH]c2c(sc3cccnc32)c(=O)n1CCCCN1CCN2c3ccccc3OCC2C1 (single isomer, unassigned; (+)) [Example 3, (+) 3-[4-(1,2,4a,5-tetrahydropyrazino[2,1-c][1,4]benzoxazin-3(4H)-yl)butyl]pyrido[2′, 3′:4,5]thieno[3,2-d]pyrimidine-2,4(1H,3H)-dione dihydrochloride]
1.18 | 278 to 282 | Cl.Cl.O=c1[nH]c2c(sc3cccnc32)c(=O)n1CCCN1CCN2c3ccccc3OCC2C1 (single isomer, unassigned; (+)) [Example 1, (+) 3-[3-(1,2,4a,5-tetrahydropyrazino[2,1-c][1,4]benzoxazin-3(4H)-yl)propyl]pyrido[2′,3′:4,5]thieno[3,2-d]pyrimidine-2,4(1H,3H)-dione dihydrochloride]
0.387 |  | COc1cccc2c1N1CCN(CCCCn3c(=O)[nH]c4c(sc5ncccc54)c3=O)CC1CO2 (single isomer, unassigned; (-)) [Example 11, (−) 3-[4-(10-methoxy-1,2,4a,5-tetrahydropyrazino[2,1-c][1,4]benzoxazin-3(4H)-yl)butyl]pyrido[3′,2′:4.5]thieno[3,2-d]pyrimidine-2,4(1H,3H)-dione trihydrochloride]
0.334 | 301 to 302 | COc1cccc2c1N1CCN(CCn3c(=O)[nH]c4c(sc5cccnc54)c3=O)CC1CO2.Cl.Cl.Cl (single isomer, unassigned; (+)) [Example 16, (+) 3-[2-(10-methoxy-1,2,4a,5-tetrahydropyrazino[2,1-c][1,4]benzoxazin-3(4H)-yl)ethyl]pyrido[2′,3′:4,5]thieno[3,2-d]pyrimidine-2,4(1H,3H)-dione trihydrochloride]
0.249 | 215 to 220 | COc1cccc2c1N1CCN(CCCn3c(=O)[nH]c4c(sc5cccnc54)c3=O)CC1CO2.Cl.Cl.Cl (single isomer, unassigned; (-)) [Example 9, (−) 3-[3-(10-methoxy-1,2,4a,5-tetrahydropyrazino[2,1-c][1,4]benzoxazin-3(4H)-yl)propyl]pyrido[2′,3′:4,5]thieno[3,2-d]pyrimidine-2,4(1H, 3H)-dione trihydrochloride]
